Values of other authors in patent US12653831B2, “Methods for the non-toxic treatment for opioid drug withdrawal combining noribogaine and cannabinoids” (priority 2019, dated 2026).
Read-outs that look alike come from different tables or passages of the source.

Key:
β-amyloid-injected mice = conditions: subchronic administration for 3 weeks
primary microglia = conditions: for sensitivity of the induced migration to cannabinoid receptor antagonists: with CB(1)/CB(2) antagonists
CB2 receptors = CB2 receptors (Homo sapiens, UniProt P34972)
CB2 receptors, sequence (P34972 whole entry): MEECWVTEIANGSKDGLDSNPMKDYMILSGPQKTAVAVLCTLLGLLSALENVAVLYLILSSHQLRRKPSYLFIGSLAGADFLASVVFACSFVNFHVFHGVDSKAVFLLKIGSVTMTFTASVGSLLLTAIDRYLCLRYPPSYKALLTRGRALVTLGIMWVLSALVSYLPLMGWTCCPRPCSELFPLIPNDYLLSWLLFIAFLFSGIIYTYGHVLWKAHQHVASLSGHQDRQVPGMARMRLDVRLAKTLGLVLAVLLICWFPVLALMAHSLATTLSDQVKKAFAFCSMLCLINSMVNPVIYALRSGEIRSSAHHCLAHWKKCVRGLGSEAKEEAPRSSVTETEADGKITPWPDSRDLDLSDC

N13 microglial cells = conditions: ATP 400 μM, cultured N13 microglial cells
rat primary microglia = conditions: ATP 400 μM
[1] = high doses, various animal models
[2] = not given; remark: listed apart in the source

Row | Compound | cytokine gene expression (β-amyloid-injected mice) | learning of a spatial navigation task (β-amyloid-injected mice) | tolerability (in humans) | psychoactive or cognitive effects (in vivo) | effect on primary microglia migration (primary microglia) | sensitivity of the induced migration to cannabinoid receptor antagonists (primary microglia) | binding to CB2 receptors (CB2 receptors) | effect on ATP-induced increase in intracellular calcium ([Ca(2+)](i)) (N13 microglial cells) | effect on ATP-induced increase in intracellular calcium ([Ca(2+)](i)) (rat primary microglia) | adverse effects in preclinical toxicity studies [1] | effect on EKG QTc interval ([2]; dose of 30 mg daily) | effect on EKG QTc interval ([2]; higher doses (above 60 mg/day))
1 | C=C(C)[C@@H]1CCC(C)=C[C@H]1c1c(O)cc(CCCCC)cc1O [CBD, cannabidiol] | able to prevent | able to prevent | well tolerated without side effects | does not induce psychoactive or cognitive effects | promoted | blocked by CB(1) and/or CB(2) antagonists | binds very weakly | concentration-dependently decreased | concentration-dependently decreased |  |  | 
2 | CCCCCCC(C)(C)c1cc(OC)c([C@@H]2C=C(CO)[C@@H]3C[C@H]2C3(C)C)c(OC)c1 [HU-308] |  |  |  |  | induced | blocked by a CB(2) antagonist only |  | without effect | without effect |  |  | 
3 | Cc1c(C(=O)c2cccc3ccccc23)c2cccc3c2n1[C@H](CN1CCOCC1)CO3 [WIN 55,212-2, (R)-(+)-[2,3-dihydro-5-methyl-3-(4-morpholinylmethyl)pyrrolo-[1,2,3-d,e]-1,4-benzoxazin-6-yl]-1-naphthalenyl-methanone] | able to prevent | able to prevent |  |  | promoted | blocked by CB(1) and/or CB(2) antagonists |  | concentration-dependently decreased | concentration-dependently decreased |  |  | 
4 | CC[C@H]1CC2C[C@H]3c4[nH]c5ccc(O)cc5c4CCN(C2)C13 [noribogaine, Noribogaine] |  |  |  |  |  |  |  |  |  | serious cardiac and CNS adverse effects | shortens the QTc interval | increase QTc
